SMILES strings stand for the structures. Where a SMILES comes first, the peptide text is derived from it. Bridges are numbered along the chain shown (N, C = ends). [ ]: non-standard residue; d: D form. The star is where a group is joined. Threoninol(2S,3R) = C[C@@H](O)[C@H](CO)N*

Among the data in ChEMBL document CHEMBL1909046, “DrugMatrix in vitro pharmacology data” are IC50 and Ki values, retold here.

Series [1] deals with T1, Alpha-1D adrenergic receptor (Homo sapiens, UniProt P25100).
T1 sequence (P25100 whole entry): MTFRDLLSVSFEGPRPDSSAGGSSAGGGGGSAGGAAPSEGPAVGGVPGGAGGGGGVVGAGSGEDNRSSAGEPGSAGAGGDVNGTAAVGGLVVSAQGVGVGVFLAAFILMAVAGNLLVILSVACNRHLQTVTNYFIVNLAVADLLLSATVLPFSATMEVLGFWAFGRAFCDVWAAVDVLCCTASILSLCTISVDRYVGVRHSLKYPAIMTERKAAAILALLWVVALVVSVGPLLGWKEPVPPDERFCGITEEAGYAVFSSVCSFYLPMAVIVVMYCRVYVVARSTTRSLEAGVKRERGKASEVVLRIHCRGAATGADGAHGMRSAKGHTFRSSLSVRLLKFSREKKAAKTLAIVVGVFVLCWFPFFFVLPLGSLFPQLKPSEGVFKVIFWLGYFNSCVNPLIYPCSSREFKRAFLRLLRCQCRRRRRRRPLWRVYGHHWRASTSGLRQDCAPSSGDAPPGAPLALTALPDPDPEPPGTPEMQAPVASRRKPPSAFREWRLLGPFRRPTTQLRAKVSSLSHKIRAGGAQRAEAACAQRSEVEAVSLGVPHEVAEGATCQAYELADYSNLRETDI
The format is cell membranes, HEK293, Membrane. To be noted: hek293.

The next series concerns the target T2, B2 bradykinin receptor (Homo sapiens, UniProt P30411). Note: in other assays of this panel Not Active means under 50% inhibition at 10 µM.
T2 sequence (P30411 whole entry): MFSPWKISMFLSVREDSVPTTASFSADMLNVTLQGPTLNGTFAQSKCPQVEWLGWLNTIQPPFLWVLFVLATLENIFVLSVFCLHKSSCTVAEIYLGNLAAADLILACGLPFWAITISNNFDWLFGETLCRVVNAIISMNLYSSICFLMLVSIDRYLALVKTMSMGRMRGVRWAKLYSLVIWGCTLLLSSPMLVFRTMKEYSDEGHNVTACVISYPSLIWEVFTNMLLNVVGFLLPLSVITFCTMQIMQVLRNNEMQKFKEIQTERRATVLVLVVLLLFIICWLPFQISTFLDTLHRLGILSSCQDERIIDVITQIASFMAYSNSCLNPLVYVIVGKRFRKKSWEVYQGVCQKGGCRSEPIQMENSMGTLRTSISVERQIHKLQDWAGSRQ
The format is cell membranes, Membrane. The conditions noted are these: chem-1.

Series [2] is described as follows: DRUGMATRIX: Serotonin (5-Hydroxytryptamine) 5-HT3 radioligand binding (ligand: [3H] GR-65630). To be noted: hek293, Not Active = under 50% inhibition at 10 µM. The format is cell membranes, Membrane.
The target in the next series is Vasopressin V1a receptor (Homo sapiens, UniProt P37288). The format is cell membranes, Membrane. To be noted: hek293. Note: in other assays of this panel Not Active means under 50% inhibition at 10 µM.
Sequence of Vasopressin V1a receptor (P37288 whole entry): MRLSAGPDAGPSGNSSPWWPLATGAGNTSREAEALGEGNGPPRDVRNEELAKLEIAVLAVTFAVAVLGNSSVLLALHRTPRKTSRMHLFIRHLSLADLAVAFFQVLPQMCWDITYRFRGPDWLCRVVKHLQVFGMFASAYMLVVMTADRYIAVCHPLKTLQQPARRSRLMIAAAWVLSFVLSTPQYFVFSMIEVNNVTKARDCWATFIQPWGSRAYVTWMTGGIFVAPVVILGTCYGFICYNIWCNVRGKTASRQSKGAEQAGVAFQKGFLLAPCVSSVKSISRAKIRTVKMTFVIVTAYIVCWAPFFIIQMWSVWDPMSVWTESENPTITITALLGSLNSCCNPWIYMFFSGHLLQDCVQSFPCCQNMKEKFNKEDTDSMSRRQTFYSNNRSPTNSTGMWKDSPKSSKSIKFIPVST
A short description of series [3]: DRUGMATRIX: Nicotinic Acetylcholine radioligand binding (ligand: [125I] Epibatidine). The format is cell membranes, Membrane. To be noted: imr-32; Not Active = under 50% inhibition at 10 µM.
A short description of series [4]: DRUGMATRIX: Phosphodiesterase PDE3 enzyme inhibition (substrate: [3H]cAMP + cAMP). The format is tissue-based, Homo sapiens. The conditions noted are these: platelet; Not Active = under 50% inhibition at 10 µM.
A short description of series [5]: DRUGMATRIX: Purinergic P2X radioligand binding (ligand: [3H] alpha, beta-Methylene-ATP). The conditions noted are these: Not Active = under 50% inhibition at 10 µM. In kind it is cell membranes, Oryctolagus cuniculus, New Zealand albino, Urinary bladder, Membrane.
A further series concerns the target Cytochrome P450 2C19 (Homo sapiens, UniProt P33261). The conditions noted are these: bti-tn-5b1-4. Note: in other assays of this panel Not Active means under 50% inhibition at 10 µM.

Sequence of Cytochrome P450 2C19 (P33261 whole entry): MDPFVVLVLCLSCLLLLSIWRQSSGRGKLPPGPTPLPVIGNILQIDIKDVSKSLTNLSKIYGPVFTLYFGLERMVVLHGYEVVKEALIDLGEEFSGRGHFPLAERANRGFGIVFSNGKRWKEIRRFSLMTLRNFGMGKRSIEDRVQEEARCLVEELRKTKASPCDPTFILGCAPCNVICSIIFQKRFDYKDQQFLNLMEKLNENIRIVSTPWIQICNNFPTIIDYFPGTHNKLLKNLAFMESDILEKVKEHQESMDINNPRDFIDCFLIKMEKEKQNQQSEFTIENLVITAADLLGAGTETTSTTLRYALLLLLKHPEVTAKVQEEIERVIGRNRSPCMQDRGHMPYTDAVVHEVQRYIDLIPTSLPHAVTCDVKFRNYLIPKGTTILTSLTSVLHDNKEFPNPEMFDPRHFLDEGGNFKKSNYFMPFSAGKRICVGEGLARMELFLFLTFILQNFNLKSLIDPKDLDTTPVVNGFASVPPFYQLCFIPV

Take `O=C1CC[C@H](N2C(=O)c3ccccc3C2=O)C(=O)N1`: the IC50 entry (in series [1]; at B2 bradykinin receptor; in series [2]; against Vasopressin V1a receptor; in series [3]; in series [4]) was “Not Active” in each case. Moreover, the IC50 result (in series [5]; against Cytochrome P450 2C19) was “Not Active” each time. Also, the Ki result (in series [2]; in series [3]; in series [4]; in series [5]; at Cytochrome P450 2C19) was “Not Active” throughout.
Take `N=C(Nc1ccccc1)Nc1ccccc1`: the IC50 entry (in series [1]; against B2 bradykinin receptor; in series [2]; on Vasopressin V1a receptor; in series [3]; in series [4]) was “Not Active” each time. Also, the IC50 result (in series [5]; at Cytochrome P450 2C19) was “Not Active” in each case. For the same compound, the Ki entry (in series [2]; in series [3]; in series [4]; in series [5]; at Cytochrome P450 2C19) was “Not Active” each time.
On to `C[C@@H](O)[C@H](CO)NC(=O)[C@@H]1CSSC[C@H](NC(=O)[C@H](N)Cc2ccccc2)C(=O)N[C@@H](Cc2ccccc2)C(=O)N[C@H](Cc2c[nH]c3ccccc23)C(=O)N[C@@H](CCCCN)C(=O)N[C@@H]([C@@H](C)O)C(=O)N1` (H-[dF]CF[dW]KTC-{Threoninol(2S,3R)}; disulfide 2-7), for which the IC50 result (in series [1]; against B2 bradykinin receptor; in series [2]; against Vasopressin V1a receptor; in series [3]; in series [4]) was “Not Active” each time. Moreover, the IC50 result (in series [5]; on Cytochrome P450 2C19) was “Not Active” each time. Also, the Ki result (in series [2]; in series [3]; in series [4]; in series [5]; on Cytochrome P450 2C19) was “Not Active” in each case.
Turning to `S=C=Nc1cccc2ccccc12` [1-NAPHTHYLISOTHIOCYANATE], the IC50 entry (in series [1]; against B2 bradykinin receptor; in series [2]; on Vasopressin V1a receptor; in series [3]; in series [4]) was “Not Active” in each case. The IC50 entry (in series [5]; against Cytochrome P450 2C19) was “Not Active” throughout. Besides, the Ki entry (in series [2]; in series [3]; in series [4]; in series [5]; on Cytochrome P450 2C19) was “Not Active” each time.
For `CCCC(=O)Nc1ccc(OCC(O)CNC(C)C)c(C(C)=O)c1` (stereo unspecified) [ACEBUTOLOL], the IC50 result (in series [1]; against B2 bradykinin receptor; in series [2]; on Vasopressin V1a receptor; in series [3]; in series [4]) was “Not Active” throughout. The IC50 entry (in series [5]; against Cytochrome P450 2C19) was “Not Active” throughout. Also, the Ki result (in series [2]; in series [3]; in series [4]; in series [5]; at Cytochrome P450 2C19) was “Not Active” each time.
With `CC(=O)Nc1ccc(O)cc1` [ACETAMINOPHEN], the IC50 result (in series [1]; at B2 bradykinin receptor; in series [2]; on Vasopressin V1a receptor; in series [3]; in series [4]) was “Not Active” in each case. Besides, the IC50 result (in series [5]; at Cytochrome P450 2C19) was “Not Active” throughout. Besides, the inhibitory constant (Ki) result (in series [2]; in series [3]; in series [4]; in series [5]; on Cytochrome P450 2C19) was “Not Active” throughout.
For `COc1cc2c(c3oc(=O)c4c(c13)CCC4=O)[C@@H]1C=CO[C@@H]1O2` [AFLATOXIN], the IC50 result (in series [1]; at B2 bradykinin receptor; in series [2]; against Vasopressin V1a receptor; in series [3]; in series [4]) was “Not Active” in each case. The concentration for half-maximal inhibition (IC50) result (in series [5]; on Cytochrome P450 2C19) was “Not Active” each time. In addition, the Ki entry (in series [1]; at B2 bradykinin receptor; in series [2]; on Vasopressin V1a receptor; in series [3]; in series [4]) was “Not Active” in each case. For the same compound, the Ki result (in series [5]; at Cytochrome P450 2C19) was “Not Active” each time.
For `N=C(N)NC(=O)c1nc(Cl)c(N)nc1N` [AMILORIDE], the IC50 result (in series [1]; against B2 bradykinin receptor; in series [2]; against Vasopressin V1a receptor; in series [3]; in series [4]) was “Not Active” throughout. The half-maximal inhibitory concentration (IC50) entry (in series [5]; against Cytochrome P450 2C19) was “Not Active” each time. The inhibition constant Ki result (in series [2]; in series [3]; in series [4]; in series [5]; on Cytochrome P450 2C19) was “Not Active” each time.
`Cc1cc(=O)n(-c2ccccc2)n1C` [ANTIPYRINE]: the IC50 entry (in series [1]; at B2 bradykinin receptor; in series [2]; against Vasopressin V1a receptor; in series [3]; in series [4]) was “Not Active” in each case. Also, the IC50 result (in series [5]; at Cytochrome P450 2C19) was “Not Active” in each case. The Ki result (in series [2]; in series [3]; in series [4]; in series [5]; on Cytochrome P450 2C19) was “Not Active” throughout.
Regarding `CN1C(=O)COc2c(C(=O)NC3CN4CCC3CC4)cc(Cl)cc21` (stereo unspecified) [AZASETRON], the IC50 (commonly the concentration at which inhibition is half-maximal) in series [1] is “Not Active”; on B2 bradykinin receptor, “Not Active”; in series [2] (read-out: IC50), 13 nM; at Vasopressin V1a receptor it was “Not Active”; in series [3], “Not Active”; in series [4], “Not Active”. In addition, the IC50 result (in series [5]; against Cytochrome P450 2C19) was “Not Active” throughout. Moreover, the Ki (as a rule, a dissociation constant, usually derived from enzyme kinetics or from competition with a known ligand) is 2.89 nM in series [2] (read-out: Ki); “Not Active” in series [3]; “Not Active” in series [4]; “Not Active” in series [5]; “Not Active” on Cytochrome P450 2C19.
For `C#C[C@]1(OC(C)=O)CC[C@H]2[C@@H]3CCC4=CC(=O)CC[C@@H]4[C@H]3CC[C@@]21C` [NORETHINDRONE ACETATE], the IC50 entry (in series [1]; at B2 bradykinin receptor; in series [2]; against Vasopressin V1a receptor; in series [3]; in series [4]) was “Not Active” in each case. Further, the half-maximal inhibitory concentration (IC50) result in series [5] is on record as “Not Active”. Moreover, the Ki result in series [2], in series [3], in series [4] and in series [5] was “Not Active” throughout.
For the compound `CCn1cc(C(=O)O)c(=O)c2cc(F)c(N3CCN(C)CC3)cc21` [PEFLOXACIN], the IC50 result (in series [1]; at B2 bradykinin receptor; in series [2]; on Vasopressin V1a receptor; in series [3]; in series [4]) was “Not Active” each time. Moreover, in series [5], the IC50 result was “Not Active”. The Ki result in series [2], in series [3], in series [4] and in series [5] was “Not Active” throughout.
Regarding `CCCCOc1ccc(OCCCN2CCOCC2)cc1` [PRAMOXINE], the IC50 entry (in series [1]; against B2 bradykinin receptor; in series [2]; on Vasopressin V1a receptor; in series [3]; in series [4]) was “Not Active” each time. For the same compound, the IC50 result in series [5] was “Not Active”. Moreover, the Ki result in series [2], in series [3], in series [4] and in series [5] was “Not Active” in each case.
